Results from PubChem BioAssay (NCI).
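Five compound concentrations were applied to cells in 96-well plates for 48 hours; endpoints were derived by simple linear interpolation of the resulting dose-response curve. GI50 = concentration required for 50% inhibition of growth. TGI: concentration producing complete growth inhibition.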

What was measured:
Experiment in all cases: DTP human tumour cell line panel, 48 h
MOLT-4 leukemia = system: MOLT-4 leukemia
PC-3 prostate = system: PC-3 prostate
OVCAR-5 ovarian = system: OVCAR-5 ovarian
A498 renal = system: A498 renal
SK-MEL-5 melanoma = system: SK-MEL-5 melanoma
CAKI-1 renal = system: CAKI-1 renal
NCI-H23 lung = system: NCI-H23 lung
HOP-92 NSCLC = system: HOP-92 NSCLC
NCI-H460 lung = system: NCI-H460 lung

SMILES	TGI (MOLT-4 leukemia)	TGI (PC-3 prostate)	TGI (OVCAR-5 ovarian)	TGI (A498 renal)	TGI (SK-MEL-5 melanoma)	TGI (CAKI-1 renal)	TGI (NCI-H23 lung)	TGI (HOP-92 NSCLC)	TGI (NCI-H460 lung)	GI50 (PC-3 prostate)	GI50 (OVCAR-5 ovarian)	GI50 (A498 renal)	GI50 (SK-MEL-5 melanoma)	GI50 (CAKI-1 renal)	GI50 (HOP-92 NSCLC)
C=CCOC(C)(C)C1=CCC(C)CC1 (stereo not given)	> 100 µM	> 100 µM	> 100 µM	> 100 µM	> 100 µM	> 100 µM	> 100 µM	> 100 µM	> 100 µM						
CN(C)c1cccc2c(S(=O)(=O)NCCN)cccc12	> 100 µM	> 100 µM	> 100 µM	69.8 µM	> 100 µM	> 100 µM	> 100 µM	> 100 µM	> 100 µM						
COc1ccc(S(=O)(=O)NC(CCC(=O)NC(N)=O)C(=O)NC(N)=O)cc1 (stereo not given)	> 100 µM	> 100 µM	> 100 µM	> 100 µM	> 100 µM	> 100 µM	> 100 µM	> 100 µM	> 100 µM						
COc1cc2c(cc1OC)C1=C(C=O)c3ccc(OC)c(OC)c3C(O)N1CC2 (stereo not given)	> 100 µM	54 µM	> 100 µM	72.5 µM	29.7 µM	> 100 µM	57.1 µM		> 100 µM						
CC1(C)C(=O)/C(=C/c2ccccc2)C(C)(C)C1(C)C	> 100 µM	> 100 µM	> 100 µM	> 96.2 µM	> 100 µM	> 100 µM	> 100 µM	> 100 µM	> 100 µM						
CCNC(=S)N/N=C(/C)c1cccc(/C(C)=N\NC(=S)NCC)n1	14.7 µM	> 100 µM	> 72.8 µM	56.7 µM	5.52 µM	74.1 µM	73.7 µM	24.6 µM	12.5 µM						
Nc1c(C(=O)O)c2ccc([N+](=O)[O-])cc2c(=O)n1-c1nc2ccccc2s1	> 100 µM	> 100 µM	> 100 µM	> 100 µM	> 100 µM	> 100 µM	> 100 µM		> 100 µM						
COc1ccc2oc(=O)c(-c3cc4c(c(C)n3)c(=O)oc3ccc(OC)cc34)cc2c1	> 100 µM	> 100 µM			> 100 µM	> 100 µM	> 100 µM	> 100 µM	> 100 µM						
O=S(Nc1ccccc1)c1ccc(Cl)cc1 (stereo not given)	> 100 µM		> 100 µM		> 100 µM	> 100 µM	> 100 µM		> 100 µM						
Cc1cc2nc(N3C(=O)/C(=C/Cc4ccco4)N=C3c3ccccc3)sc2cc1C	> 100 µM	54 µM	> 100 µM		> 100 µM	> 100 µM		60.5 µM	> 100 µM						
O=C(/C=C/c1ccccc1)c1cc(CN2CCOCC2)c(O)c(CN2CCOCC2)c1	75.6 µM	38.4 µM	36.2 µM	28.2 µM	26 µM	4.36 µM	60 µM	26.9 µM	19.4 µM						
O=C(Nc1cccc2ccccc12)c1cc2ccccc2oc1=O	> 100 µM	> 100 µM	> 100 µM	> 100 µM	> 100 µM	> 100 µM	> 100 µM	> 100 µM	> 100 µM						
COc1ccc(C(=CCC(C)C2CCC3[C@@H]4C(OC(C)=O)CC5CC(OC(C)=O)CC[C@]5(C)C4CC(OC(C)=O)[C@]23C)c2ccc(OC)cc2)cc1 (stereo not given in full)	> 100 µM	> 100 µM	> 100 µM		> 100 µM				> 100 µM						
COc1cccc2c(=O)oc(-c3ccccc3C)nc12	68 µM	> 100 µM	> 100 µM	> 100 µM	57.7 µM	> 100 µM	> 100 µM	> 100 µM	> 100 µM						
Cc1nc(C(=Nc2ccc(Br)cc2)Nn2cnnc2)no1	> 100 µM	> 100 µM	> 100 µM	> 100 µM	> 100 µM	> 100 µM	> 100 µM	> 100 µM	> 100 µM						
O=c1c2[nH]cnc2n(-c2ccccc2)c(=S)n1-c1ccccc1	> 100 µM	> 100 µM	> 100 µM	> 100 µM	> 100 µM	> 100 µM	> 100 µM		> 100 µM						
Cn1c(CO)ccc1-c1ccc(-c2ccc(CO)[se]2)[se]1	> 51.2 µM	> 100 µM		0.0684 µM	6.74 µM	0.0381 µM	> 74.8 µM		> 100 µM						
CCc1c(O)nc(Nc2nc3ccccc3[nH]2)[nH]c1=O		> 100 µM	> 100 µM	> 100 µM	> 100 µM		> 100 µM	> 100 µM	> 100 µM						
NCCCNc1nc2ccccc2c2c(=O)c3cc(Cl)ccc3sc12		3.23 µM	3.14 µM	12.1 µM	16.2 µM	2.86 µM		3.35 µM		1.69 µM	1.67 µM	3.22 µM	3.71 µM	1.49 µM	1.28 µM

SMILES	TGI (MOLT-4 leukemia)	TGI (PC-3 prostate)	TGI (OVCAR-5 ovarian)	TGI (A498 renal)	TGI (SK-MEL-5 melanoma)	TGI (CAKI-1 renal)	TGI (NCI-H23 lung)	TGI (HOP-92 NSCLC)	TGI (NCI-H460 lung)	GI50 (PC-3 prostate)	GI50 (OVCAR-5 ovarian)	GI50 (A498 renal)	GI50 (SK-MEL-5 melanoma)	GI50 (CAKI-1 renal)	GI50 (HOP-92 NSCLC)
CC(=O)OC12c3ccccc3C(c3ccccc31)C1C(=O)N(N=C(C)C)C(=O)C12 (stereo not given)	> 100 µM	> 100 µM	> 100 µM		> 100 µM	> 100 µM	> 100 µM								
CC(=O)O[C@H]1CC[C@@H](OC(C)=O)[C@H]2[C@H](O)[C@H](O)[C@@H]1n1c(=O)n(-c3ccccc3)c(=O)n12	> 100 µM	> 100 µM	> 100 µM	> 100 µM	> 100 µM	> 100 µM	> 100 µM	> 100 µM							
CC(C)(NO)/C(=N\O)c1ccccc1	> 10 µM	> 10 µM	> 10 µM			> 10 µM	> 10 µM	> 10 µM	> 10 µM						
[N-]=[N+]=CC(=O)C1CCN(c2ccccc2)C1=O (stereo not given)	> 10 µM	> 10 µM	> 10 µM	> 10 µM	> 10 µM	> 10 µM	> 10 µM		> 10 µM						
Cc1ccc(S(=O)(=O)NC(=O)Nc2ccc(C(=O)O)cc2)cc1	> 100 µM	> 100 µM	> 100 µM		> 100 µM		> 100 µM	> 100 µM	> 100 µM						
COC(=O)[C@H](C)NC(=O)[C@H](NS(=O)(=O)c1nc2ccccc2s1)c1ccccc1	> 100 µM	> 100 µM			40.5 µM	67.2 µM	> 100 µM	27.4 µM	> 100 µM						
CC1=NC(=N)N=C(C)C1N=Nc1ccc2nc(C)[nH]c2c1 (stereo not given)	> 100 µM	> 100 µM	> 100 µM	> 100 µM		> 100 µM	> 100 µM	> 100 µM	> 100 µM						
CC(=O)CCC1(C(=O)OCC(C)C)CCCC1=O (stereo not given)	> 100 µM	> 100 µM	> 100 µM		> 100 µM	> 100 µM	> 100 µM	> 100 µM	> 100 µM						
O=C(OCCN=c1c2ccccc2ccc2ccccc12)c1cc([N+](=O)[O-])cc([N+](=O)[O-])c1	> 100 µM	> 100 µM	> 100 µM		> 100 µM	> 100 µM	> 100 µM	> 100 µM	> 100 µM						
COC(=O)c1c(O)ccc2c1c1c(n2Cc2ccc(OC)cc2)C(=O)c2ccccc2C1	> 100 µM	59.5 µM		> 100 µM	> 100 µM	74.1 µM	> 100 µM		> 100 µM						
Cc1cccc2c1nc1n2C(=O)c2ccccc2-1	> 100 µM	> 100 µM	> 100 µM		> 100 µM	> 100 µM	> 100 µM	> 100 µM	> 100 µM						
O=C(O)CCCc1ccc2c(c1)C(C(=O)O)CC2 (stereo not given)	> 100 µM	> 100 µM	> 100 µM		> 100 µM	> 100 µM	> 100 µM		> 100 µM						
COC1=C(OC)C(=O)C(Cc2c(Cl)nc3sccn23)=C(C)C1=O	4.17 µM	28.5 µM	31.7 µM	28.5 µM	17.5 µM	45 µM	29.2 µM		25.4 µM						
COc1cc(C2c3cc4c(cc3[C@@H](Nc3ccc(F)cc3)C3COC[C@H]23)OCO4)cc(OC)c1O (stereo not given in full)	0.993 µM	> 25 µM	14.1 µM		> 25 µM				3.83 µM						
COC(=O)Nc1cc(OCCCOC(C)=O)c2[nH]c(C(=O)OC)cc2c1C[C@H](O)CO	> 100 µM	> 100 µM	> 100 µM	> 100 µM	> 100 µM	> 100 µM	> 100 µM	> 100 µM							
Cc1ccc(C(=O)Nc2ccc(CP(=O)(O)O)cc2CP(=O)(O)O)cc1N	> 100 µM	> 100 µM	> 100 µM	> 100 µM	> 100 µM	> 100 µM	> 100 µM	> 100 µM							
O=C(/C=C\c1ccccc1)Oc1ccc(/C=C2\CCC/C(=C\c3ccc(OC(=O)/C=C\c4ccccc4)cc3)C2=O)cc1	> 100 µM	> 100 µM	> 100 µM		> 100 µM	> 100 µM	> 100 µM	> 100 µM	> 100 µM						
Clc1[nH]nc2ccccc12	> 100 µM	> 100 µM	> 100 µM	> 100 µM	> 100 µM		> 100 µM	> 100 µM	> 100 µM						
